From publication PMC10492782, “Exploiting the aggregation propensity of beta-lactamases to design inhibitors that induce enzyme misfolding” (Nature Communications, 2023)

Assays:
[1] = Thioflavin-T aggregation kinetics and electron microscopy of peptide; format: physicochemical; details: 50 μM peptide with polyphosphate; EM after 24 h incubation at RT
Protocol: (§1) Fig. 4 Aggregation kinetics of TEM and SHV proteins and peptides. A Measurements of the hydrodynamic radius by Dynamic Light Scattering of 50 μM TEM3.2 in buffer alone, or in the presence of LPS or polyphosphate (PolyP). […] C Transmission Electron Micrograph of 50 μM TEM 3.2 incubated for 24 h in the same buffer as A with polyP, negatively stained with 2% (w/v) uranyl acetate. A single representative image is shown. […] Three replicates are shown for each condition. E Aggregation kinetics using pFTAA fluorescence emission of recombinantly purified TEM-1, in the presence of vehicle, or TEM 3.2 peptin, as well as peptin-only control. F Similar as in E, but using an off-target Pept-In, based on an APR sequence of beta-galactosidase. G Similar to E, but now using a previously published off-target Pept-In, based on an APR of HcaB. The plots are the results of a single experiment, all replicates are shown. Source data are provided as a Source Data file.
A DynaPro DLS plate reader instrument (Wyatt, Santa Barbara, CA, USA) equipped with an 830 nm laser source was used to determine the hydrodynamic radius (RH) of the peptide particles. […] The autocorrelation of scattered light intensity at a 32° angle was recorded for 5 s and averaged over 20 recordings to obtain a single data point. […]

[2] = Tolerability, dose escalation; format: in vivo, female C57BL/6JAX mice; details: mice; for Tox beheviour Sub: subcutaneous
Protocol: We also performed a tolerability study using a dose escalation method by administering the peptide at 2, 5, 10, 15, and 20 mg/kg via different parenteral routes: intravenous (IV), intraperitoneal (IP), and subcutaneous (SC) in female C57BL/6JAX mice, aged 8–10 weeks (Suppl Table 4). […] Vehicle alone (0.9% NaCl) was also administered (IV). After 24 h the animals were sacrificed and the bacterial load in the bladder, kidney, and ureter was quantified by determining the number of colony-forming units (CFU) per mL of tissue extract (Fig. 7E–G). […]

[3] = test system: primary Human Umbilical Vein Endothelial Cells (HUVEC); details: 24 h, 400 to 12.5 µg/mL
Protocol: The Cell Titer Blue assay was performed to evaluate the cell viability according to the instructions of the manufacturer (Promega, USA). The peptide treatments were done in DMEM medium without serum. Briefly, cells were seeded to approximately 20,000 mammalian cells per well in a 96-well flat-bottom plate (BD Biosciences 353075) and incubated at 37 °C with 5% CO2 and 90% humidity. Peptides were diluted in cell medium, and cells were treated for 24 h. 20 μL of the CellTiter Blue reagent was added to each well and the plate was incubated for 1 h at 37 °C. The fluorescence was measured at 590 nm by exciting at 560 nm with a ClarioStar plate reader (BMG Labtech, Germany).

[4] = Hematologic analysis after repeated dosing; details: daily IV injections, 5 mg/kg
E. coli TEM104 = details: checkerboard, strain containing TEM1 / TEM-1; FICI below 0.5 = synergy
Protocol: To quantify the synergy between these four peptides and penicillin G, we performed a so-called checkerboard assay, which allows us to compare the activity of two test compounds co-incubated (here peptide and a beta-lactam antibiotic), to their individual activities in isolation. […] We evaluated the synergy of the peptides with penicillin G in clinical E. coli isolates carrying the TEM (Fig. 3D) or SHV enzymes (Fig. 3E). […] The list of strains included some that harbored only TEM or SHV, but others contained additional Ambler Class A (CTX-M or OXA) or Class B (VIM and NDM) beta-lactamases.
For the analysis of synergy between the peptides and other antibiotics, a checkerboard assay was performed. Based on the MICs of the selected peptides, a checkerboard assay was designed to define their FICIs (Fractional Inhibitory Concentration Index) in combinations against different clinical isolates[53],[54]. Briefly, a total volume of 100 μL of Mueller–Hinton broth was distributed into each well of the 96-well plates. The first compound (peptide) of the combination was serially diluted vertically (128, 64, 32, 16, 8, 4, 2, 0 μg/mL) while the other drug (Beta-lactam or Kanamycin) was diluted horizontally in a 96-well plate (from 3200 to 3 μg/ mL). The total volume of each microtiter well was inoculated with 100 μL of MHB containing 1 × 10^6 CFU/mL bacteria. The plates were incubated at 37 °C for 24 h under aerobic conditions without shaking. Calculation of the FICI is used to analyze the results of the checkerboard assay by estimating the degree of synergistic effect. FICI is calculated as the sum of the individual fractional inhibitory concentrations (FICs) for each drug (where MIC A and MIC B denote the MIC of each drug alone, and MIC AA+B and MIC BA+B denote the concentrations of A and B in the drug combination). FICI = (MIC AA+B/MIC A) + (MIC BA+B/MIC B). With FICI ≤ 0.5, the combination of antibiotics is considered as a synergistic effect, 0.5 < FICI ≤ 1 indicates additivity, FICI > 1 indicates indifference.

[5] = pFTAA fluorescence of peptide aggregates; format: physicochemical; details: 50 μM peptide, PolyP condition
Protocol: as §1

**Q.** With Ac-RLTAFLHNRRPRLTAFLRQRR-NH2 [TEM3.2] as the substance, how does the “Thioflavin T binding and Transmission Electron Microscopy (in words)” value [1] read?
**A.** The value was “amyloid-like aggregation in the presence of polyphosphate”.

**Q.** What about the “Tox beheviour IP” value ([2]; 2 mg/Kg) of the same substance?
**A.** Its value is “no sign of tox”.

**Q.** And the “Tox beheviour IV” value ([2]; 2 mg/Kg)?
**A.** Its value is “no sign of tox”.

**Q.** And the “Tox beheviour Sub” value ([2]; 2 mg/Kg)?
**A.** Its value is “no sign of tox”.

**Q.** What about the “Tox beheviour IP” value ([2]; 5 mg/Kg) of the same substance?
**A.** Its value is “no sign of tox”.

**Q.** What about the “Tox beheviour IV” value ([2]; 5 mg/Kg) of the same substance?
**A.** Its value is “no sign of tox”.

**Q.** What about the “Tox beheviour Sub” value ([2]; 5 mg/Kg) of the same substance?
**A.** The value was “no sign of tox”.

**Q.** And the “Tox beheviour IP” value ([2]; 10 mg/Kg)?
**A.** The value was “no sign of tox”.

**Q.** What about the “Tox beheviour IV” value ([2]; 10 mg/Kg) of the same substance?
**A.** Its value is “no sign of tox”.

**Q.** What about the “Tox beheviour Sub” value ([2]; 10 mg/Kg) of the same substance?
**A.** Its value is “no sign of tox”.

**Q.** And the “Tox beheviour IP” value ([2]; 15 mg/Kg)?
**A.** The value was “no sign of tox”.

**Q.** And the “Tox beheviour IV” value ([2]; 15 mg/Kg)?
**A.** The value was “no sign of tox”.

**Q.** And the “Tox beheviour Sub” value ([2]; 15 mg/Kg)?
**A.** Its value is “no sign of tox”.

**Q.** What about the “Tox beheviour IP” value ([2]; 20 mg/Kg) of the same substance?
**A.** Its value is “no sign of tox”.

**Q.** What about the “Tox beheviour IV” value ([2]; 20 mg/Kg) of the same substance?
**A.** The value was “no sign of tox”.

**Q.** What about the “Tox beheviour Sub” value ([2]; 20 mg/Kg) of the same substance?
**A.** The value was “no sign of tox”.

**Q.** And the “cytotoxicity, Cell Titer Blue (in words)” value [3]?
**A.** Its value is “not cytotoxic”.

**Q.** And the “hematologic analysis (in words)” value [4]?
**A.** The value was “no major discrepancies to vehicle-treated controls”.

**Q.** What about the “synergy with penicillin G (in words)” value (E. coli TEM104) of the same substance?
**A.** Its value is “showed synergy in both strains”.

**Q.** And the “pFTAA staining of fibrils (in words)” value [5]?
**A.** The value was “stain positive for pentameric formyl thiophene acetic acid (pFTAA)”.
